Source: US11407768B2, “AMPK activators” (Kallyope, Inc., priority 2020, dated 2022)

Columns and labels:
[1] = target: Recombinant AMPK α1/β1/γ1 complex (Homo sapiens (Human), UniProt Q13131+Q9Y478); test: In vitro pAMPK1 kinase activation assay (ADP-Glo, SAMS peptide); type: biochemical; conditions: AMPK α1/β1/γ1 pre-activated with CAMKK2; 12-point curve; 15 min compound incubation
Protocol: Compound effect on AMPK enzyme activation was determined in a cell-free format with a 12-point concentration curve. The ADP-Glo detection system was used to determine phosphorylation of a SAMS peptide substrate. Recombinant AMPK α1/β1/γ1 complex was pre-activated by phosphorylation with CAMKK2 followed by incubated with compound for 15 minutes prior to the SAMS phosphorylation reaction. Activity curves and EC50 values were fitted by interpolation to an ATP:ADP standard curve as indicated by the ADP-Glo manufacturer using Prism software.

[2] = tested on: Chemotherapy-induced Intestinal Injury Model; test: Diarrhea in mouse chemotherapy-induced (5FU) intestinal injury model; type: in vivo, BALB/c mice; conditions: 30 mpk BID oral, 5FU 400 mg/kg IP; for Diarrhea Score Day 5 / Diarrhea Score Day 6: score 0-3
Protocol: Compounds were formulated in vehicle (0.25% methyl cellulose, 5% Tween 80, 0.02% sodium dodecyl sulfate (SDS) in Hanks' Buffered Salt Solution with Ca' and Mg'). On day 1, either saline or a 400 mg/kg dose of 5-fluorouracil (5FU) in saline was administered by intraperitoneal injection to BALB/c mice. Starting on day 2, vehicle or compound was administered twice a day by oral gavage. From days 5 to 6 post-5FU, the animals were scored for diarrhea severity once a day. The diarrhea was scored 0-3 as follows: 0—normal consistency (black and solid), 1—soft (black and a bit lighter/yellow), 2—loosely shaped stool (yellowish and somewhat watery), 3—extreme diarrhea (very watery).

in vitro = conditions: human
Protocol: Caco-2 cells purchased from ATCC were seeded onto […] (PET) in 96-well BD Insert plates at 1×10^5 cells/cm^2, and refreshed medium every 4-5 days until to the 21st to 28th day for confluent cell monolayer formation. The transport buffer in the study was HBSS with 10 mM HEPES at pH 7.40±0.05. Test compounds were tested at 2 μM bi-directionally in duplicate. Digoxin was tested at 10 μM bi-directionally in duplicate, while nadolol and metoprolol were tested at 2 μM in A to B direction in duplicate. Final DMSO concentration was adjusted to less than 1%.
The plate was incubated for 2 hours in CO2 incubator at 37±1° C., with 5% CO2 at saturated humidity without shaking. All samples were mixed with acetonitrile containing internal standard and were centrifuged at 4000 rpm for 10 min. Subsequently, 100 μL supernatant solution was diluted with 100 μL distilled water for LC/MS/MS analysis. Concentrations of test and control compounds in starting solution, donor solution, and receiver solution were quantified by LC/MS/MS, using peak area ratio of analyte/internal standard.

[3] = Pharmacokinetics (oral bioavailability) in C57BL/6 mice; conditions: mouse, in vivo; for bioavailability: IV 1 mg/kg, PO 30 mg/kg; for Vd: following IV administration, 1 mg/kg, read-out: volume of distribution
Protocol: Selected compounds were tested for pharmacokinetics in C57BL/6 mice. Compounds 1, 4, 31, 32, 40, 55, 57 and 60 were dosed IV at 1 mg/kg as a formulation of 0.2 mg/mL in 5% DMSO+30% PEG400+65% water and were dosed PO at 30 mg/kg as a formulation of 3 mg/mL in 0.25% MC+5% Tween 80+0.02% SDS. Compound 2 was dosed IV at 1 mg/kg as a formulation of 0.2 mg/mL in 5% ethanol +95% saline and was dosed PO at 30 mg/kg as a formulation of 3 mg/mL in 0.25% MC+5% Tween 80+0.02% SDS.

[4] = Caco-2, pH 7.4, Mean Recovery A to B

Sequence of Recombinant AMPK α1/β1/γ1 complex (Q13131 whole entry): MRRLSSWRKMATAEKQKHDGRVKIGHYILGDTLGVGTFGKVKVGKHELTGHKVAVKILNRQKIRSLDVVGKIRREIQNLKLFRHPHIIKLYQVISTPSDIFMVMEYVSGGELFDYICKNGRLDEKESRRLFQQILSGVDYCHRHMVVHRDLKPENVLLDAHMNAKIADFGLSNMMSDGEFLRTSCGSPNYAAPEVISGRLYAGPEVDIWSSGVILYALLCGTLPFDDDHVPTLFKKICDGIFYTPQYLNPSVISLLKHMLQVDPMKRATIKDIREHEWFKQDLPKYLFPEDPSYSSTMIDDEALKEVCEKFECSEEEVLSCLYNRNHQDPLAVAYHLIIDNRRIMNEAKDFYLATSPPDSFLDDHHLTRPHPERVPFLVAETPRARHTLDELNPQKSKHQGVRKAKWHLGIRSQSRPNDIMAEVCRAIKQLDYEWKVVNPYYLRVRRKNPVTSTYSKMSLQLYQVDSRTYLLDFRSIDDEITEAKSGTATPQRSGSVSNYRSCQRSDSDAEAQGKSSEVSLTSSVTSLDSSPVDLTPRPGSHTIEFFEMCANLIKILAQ
Sequence of Recombinant AMPK α1/β1/γ1 complex (Q9Y478 whole entry): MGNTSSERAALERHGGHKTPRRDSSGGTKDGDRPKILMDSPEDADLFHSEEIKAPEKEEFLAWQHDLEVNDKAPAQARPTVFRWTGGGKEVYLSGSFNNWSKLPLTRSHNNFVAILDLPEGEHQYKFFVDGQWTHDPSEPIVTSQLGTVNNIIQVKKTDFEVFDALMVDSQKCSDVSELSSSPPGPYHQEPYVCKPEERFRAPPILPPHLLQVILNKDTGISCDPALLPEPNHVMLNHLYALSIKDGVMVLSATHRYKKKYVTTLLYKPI
Sequence of Recombinant AMPK α1/β1/γ1 complex (P54619 whole entry partner): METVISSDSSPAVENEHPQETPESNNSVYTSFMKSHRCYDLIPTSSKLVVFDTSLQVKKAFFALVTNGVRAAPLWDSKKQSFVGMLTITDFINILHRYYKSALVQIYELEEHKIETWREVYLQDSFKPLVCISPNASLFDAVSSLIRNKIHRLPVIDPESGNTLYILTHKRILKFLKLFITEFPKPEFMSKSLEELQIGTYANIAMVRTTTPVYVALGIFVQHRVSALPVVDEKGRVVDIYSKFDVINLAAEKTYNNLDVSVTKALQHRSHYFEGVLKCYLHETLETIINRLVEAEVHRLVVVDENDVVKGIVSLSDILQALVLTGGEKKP

OCCN1CCN(Cc2ccc(-c3ccc(-c4cc5nc(O[C@@H]6CO[C@H]7[C@@H]6OC[C@H]7O)[nH]c5cc4Cl)cc3)cc2)CC1 [Compound 56]
EC50 [1]: 0.93 nM | Diarrhea Score Day 5, % Change vs. Vehicle [2]: −71% | Diarrhea Score Day 6, % Change vs. Vehicle [2]: −77% | Diarrhea Score Day 5 [2]: 0.38 | Diarrhea Score Day 6 [2]: 0.25

OCCOCCNCc1ccc(-c2ccc(-c3cc4nc(O[C@@H]5CO[C@H]6[C@@H]5OC[C@H]6O)[nH]c4cc3Cl)cc2)cc1 [Compound 58, (3R,3aR,6R,6aR)-6-((6-chloro-5-(4′-(((2-(2-hydroxyethoxy)ethyl)amino)methyl)-[1,1′-biphenyl]-4-yl)-1H-benzo[d]imidazol-2-yl)oxy)hexahydrofuro[3,2-b]furan-3-ol]
EC50 [1]: 0.93 nM | Diarrhea Score Day 5, % Change vs. Vehicle [2]: −81% | Diarrhea Score Day 6, % Change vs. Vehicle [2]: −66% | Diarrhea Score Day 5 [2]: 0.25 | Diarrhea Score Day 6 [2]: 0.38

C[C@H]1O[C@@H](O[C@H]2[C@@H](O)C[C@H](O[C@H]3[C@@H](O)C[C@H](O[C@H]4CC[C@@]5(C)[C@H](CC[C@@H]6[C@@H]5C[C@@H](O)[C@]5(C)[C@@H](C7=CC(=O)OC7)CC[C@]65O)C4)O[C@@H]3C)O[C@@H]2C)C[C@H](O)[C@@H]1O [Digoxin, reference compound]
Papp A→B at 2 h, 2 μM (in vitro; Caco-2, pH 7.4): < 0.03 ×10⁻⁶ cm/s | Papp B→A at 2 h, 2 μM (in vitro; Caco-2, pH 7.4): 12.7 ×10⁻⁶ cm/s | efflux ratio at 2 h, 2 μM (in vitro; Caco-2, pH 7.4, Efflux Ratio): > 438 | recovery at 2 h, 2 μM (in vitro; [4]): < 90.8% | recovery at 2 h, 2 μM (in vitro; Caco-2, pH 7.4, Mean Recovery B to A): 92.2%

O=P(O)(O)c1ccc(-c2ccc(-c3nc4nc(O[C@H]5CO[C@H](CO)[C@@H](O)C5)[nH]c4cc3Cl)cc2)cc1 [Compound 12, (4′-(6-chloro-2-(((3R,5S,6R)-5-hydroxy-6-(hydroxymethyl)tetrahydro-2H-pyran-3-yl)oxy)-1H-imidazo[4,5b]pyridin-5-yl)-[1,1′-biphenyl]-4-yl)phosphonic acid]
EC50 [1]: 152 nM

O[C@@H]1CO[C@H]2[C@@H]1OC[C@H]2Oc1nc2cc(-c3ccc(-c4ccc(CN5C[C@H](O)[C@@H](O)C5)cc4)cc3)c(Cl)cc2[nH]1 [Compound 64]
EC50 [1]: 1.4 nM

CN(CCOCCO)C(=O)c1ccc(-c2ccc(-c3cc4nc(O[C@@H]5CO[C@H]6[C@@H]5OC[C@H]6O)[nH]c4cc3Cl)cc2)cc1 [Compound 48, 4′-(6-chloro-2-(((3R,3aR,6R,6aR)-6-hydroxyhexahydrofuro[3,2-b]furan-3-yl)oxy)-1H-benzo [d]imidazol-5-yl)-N-(2-(2-hydroxyethoxy)ethyl)-N-methyl-[1,1′-biphenyl]-4-carboxamide]
EC50 [1]: 1.16 nM

OCCOCCNCc1ccc(-c2ccc(-c3cc4nc(O[C@@H]5CO[C@H]6[C@@H]5OC[C@H]6O)[nH]c4cc3Cl)cc2)c(O)c1 [Compound 74]
EC50 [1]: 0.15 nM

COCCc1ccc(OCC(O)CNC(C)C)cc1 (stereo not drawn) [Metoprolol, metoprolol, reference compound]
Papp A→B at 2 h, 2 μM (in vitro; Caco-2, pH 7.4): 16.4 ×10⁻⁶ cm/s | recovery at 2 h, 2 μM (in vitro; [4]): 90%

O[C@@H]1CO[C@H]2[C@@H]1OC[C@H]2Oc1nc2cc(-c3ccc(-c4ccc(CN5C[C@@H](O)[C@@H](O)C5)cc4)cc3)c(Cl)cc2[nH]1 [Compound 61, (3S,4R)-1-((4′-(6-chloro-2-(((3R,3aR,6R,6aR)-6-hydroxyhexahydrofuro[3,2-b]furan-3-yl)oxy)-1H-benzo[d]imidazol-5-yl)-[1,1′-biphenyl]-4-yl)methyl)pyrrolidine-3,4-diol]
EC50 [1]: 1.36 nM

O=C(CCCNCc1ccc(-c2ccc(-c3cc4nc(O[C@@H]5CO[C@H]6[C@@H]5OC[C@H]6O)[nH]c4cc3Cl)cc2)cc1)NC(CO)CO [Compound 38, 4-(((4′-(6-chloro-2-(((3R,3aR,6R,6aR)-6-hydroxyhexahydrofuro[3,2-b]furan-3-yl)oxy)-1H-benzo[d]imidazol-5-yl)-[1,1′-biphenyl]-4-yl)methyl)amino)-N-(1,3-dihydroxypropan-2-yl)butanamide]
EC50 [1]: 2.4 nM

O[C@@H]1CO[C@H]2[C@@H]1OC[C@H]2Oc1nc2cc(-c3ccc(-c4ccc(CN5CCNCC5)cc4)cc3)c(Cl)cc2[nH]1 [Compound 49, (3R,3aR,6R,6aR)-6-((6-chloro-5-(4′-(piperazin-1-ylmethyl)-[1,1′-biphenyl]-4-yl)-1H-benzo[d]imidazol-2-yl)oxy)hexahydrofuro[3,2-b]furan-3-ol]
EC50 [1]: 1.76 nM

O=S(=O)(O)c1ccc(-c2ccc(-c3nc4nc(O[C@@H]5CO[C@H]6[C@@H]5OC[C@H]6O)[nH]c4cc3Cl)cc2)cc1 [Compound 69, 4′-(6-chloro-2-(((3R,3aR,6R,6aR)-6-hydroxyhexahydrofuro[3,2-b]furan-3-yl)oxy)-1H-imidazo[4,5-b]pyridin-5-yl)-[1,1′-biphenyl]-4-sulfonic acid]
EC50 [1]: 1.84 nM

O=C(NCCS(=O)(=O)O)c1ccc(-c2ccc(-c3nc4nc(O[C@@H]5CO[C@H]6[C@@H]5OC[C@H]6O)[nH]c4cc3Cl)cc2)cc1 [Compound 5, 2-(4′-(6-chloro-2-(((3R,3aR,6R,6aR)-6-hydroxyhexahydrofuro[3,2-b]furan-3-yl)oxy)-1H-imidazo[4,5-b]pyridin-5-yl)-[1,1′-biphenyl]-4-ylcarboxamido)ethanesulfonic acid]
EC50 [1]: 0.86 nM

CN1CCN(Cc2ccc(-c3ccc(-c4cc5nc(O[C@@H]6CO[C@H]7[C@@H]6OC[C@H]7O)[nH]c5cc4Cl)cc3)cc2)CC1 [Compound 57, (3R,3aR,6R,6aR)-6-((6-chloro-5-(4′-((4-methylpiperazin-1-yl)methyl)-[1,1′-biphenyl]-4-yl)-1H-benzo[d]imidazol-2-yl)oxy)hexahydrofuro[3,2-b]furan-3-ol]
EC50 [1]: 0.89 nM | bioavailability [3]: < 10% | Vd [3]: < 5 L/kg

OCCOCC1CN(Cc2ccc(-c3ccc(-c4cc5nc(O[C@@H]6CO[C@H]7[C@@H]6OC[C@H]7O)[nH]c5cc4Cl)cc3)cc2)C1 [Compound 50]
EC50 [1]: 1.46 nM

NCC1CN(Cc2ccc(-c3ccc(-c4cc5nc(O[C@@H]6CO[C@H]7[C@@H]6OC[C@H]7O)[nH]c5cc4Cl)cc3)cc2)C1 [Compound 67, (3R,3aR,6R,6aR)-6-((5-(4′-((3-(aminomethyl)azetidin-1-yl)methyl)-[1,1′-biphenyl]-4-yl)-6-chloro-1H-benzo[d]imidazol-2-yl)oxy)hexahydrofuro[3,2-b]furan-3-ol]
EC50 [1]: 0.93 nM

O=C(NCCOCCO)c1ccc(-c2ccc(-c3cc4nc(O[C@@H]5CO[C@H]6[C@@H]5OC[C@H]6O)[nH]c4cc3Cl)cc2)c(O)c1 [Compound 75, 4′-(6-chloro-2-(((3R,3aR,6R,6aR)-6-hydroxyhexahydrofuro[3,2-b]furan-3-yl)oxy)-1H-benzo[d]imidazol-5-yl)-2-hydroxy-N-(2-(2-hydroxyethoxy)ethyl)-[1,1′-biphenyl]-4-carboxamide]
EC50 [1]: 0.37 nM

O=S(=O)(NC[C@H](O)[C@@H](O)[C@H](O)[C@H](O)CO)c1ccc(-c2ccc(-c3nc4nc(O[C@@H]5CO[C@H]6[C@@H]5OC[C@H]6O)[nH]c4cc3Cl)cc2)cc1 [Compound 3, 4′-(6-chloro-2-(((3R,3aR,6R,6aR)-6-hydroxyhexahydrofuro[3,2-b]furan-3-yl)oxy)-1H-imidazo [4,5-b]pyridin-5-yl)-N-((2S,3R,4R,5R)-2,3,4,5,6-pentahydroxyhexyl)-[1,1′-biphenyl]-4-sulfonamide]
EC50 [1]: 0.09 nM

OCC1CCN(Cc2ccc(-c3ccc(-c4cc5nc(O[C@@H]6CO[C@H]7[C@@H]6OC[C@H]7O)[nH]c5cc4Cl)cc3)cc2)CC1 [Compound 55, (3R,3aR,6R,6aR)-6-((6-chloro-5-(4′((4-(hydroxymethyl)piperidin-1-yl)methyl)-[1,1′-biphenyl]-4-yl)-1H-benzo[d]imidazol-2-yl)oxy)hexahydrofuro[3,2-b]furan-3-ol]
EC50 [1]: 2.22 nM | bioavailability [3]: < 15% | Vd [3]: < 5 L/kg
